The target in one assay is T1, hCB2R (Homo sapiens, UniProt P34972).
T1 construct: expressed in transfected cells; host or cells: HEK293
The experiment in a line: In vitro functional assay with recombinant cells (FLIPR, intracellular Ca2+), CB2. The class given is cell-based. Conditions: recombinant HEK293 cells expressing CB2 and G-protein Galpha16; 20 min preincubation, then reference agonist; Ca2+ change (Fluo-4). As for the experimental part: (§1) In vitro functional assays with recombinant cells:
(§2) Function-testing assays were performed by means of the FLIPR technique (“Fluorometric Imaging Plate Reader”, Molecular Devices Corp.).
(§3) To this end, ligand-induced changes in the intracellular concentration of Ca^2+ in recombinant HEK293 cells, which expressed both a cannabinoid receptor (CB1 or CB2) and G-protein Galpha16, were determined. For the studies, cells were sown into 96-well microtiter plates (60 000 cells/well) and left to grow overnight. The medium was removed and the cells were incubated in buffer which contained the fluorescent dye Fluo-4. After this loading with dye, the cells were washed, test substance was added dissolved in buffer, the mixture was incubated for 20 minutes, a known cannabinoid receptor agonist as a reference agonist was added in buffer and, finally, the changes in the intracellular Ca^2+ concentration were measured in the FLIPR unit.
Results were presented as the percentage change relative to the control (0%: analogous experiment without test substance and without reference agonist, i.e. only with buffer; 100%: analogous experiment without test substance, but with reference agonist in excess), and used to calculate dose/action curves, and IC50 values were determined

Assay [1] has as its target T2, hCB1R (Homo sapiens, UniProt P21554). The experiment in a line: Binding to the CB1 receptor ([3H]-SR141716A displacement). As for the experimental part: Binding to the CB1 Receptor:
Test compounds: The compounds (3 μl, 10 mM, 100% DMSO), pipetted into 96-well PP microtiter plates, were diluted with 27 μl of 100% DMSO (dimethyl sulfoxide). Proceeding from this solution, further 3-fold dilution steps were undertaken by transferring 10 μl in each case to a new PP microtiter plate and adding a further 20 μl of 100% DMSO. In each case 6 μl of these solutions were transferred into new 96-well PP microtiter plates and made up with 144 μl of assay buffer. The end concentrations ranged from 10 μM to 0.005 μM.
Negative control: AM 251, dissolved in assay buffer with 1% DMSO, was added to the dilution series in the microtiter plates as a control. The end concentration was 1 μM.
Blank control: assay buffer with 1% DMSO was added to the dilution series of the microtiter plates as a blank control.
Summary of the Assay Parameters:
High control: ^3H binding without addition of the compound Low control: ^3H binding in the presence of 1 μM AM 251
The values were calculated using the corrected raw data.
The values reported were obtained as average values of a double determination. The IC50 values were calculated from the measurements with the program Xlfit, formula 205. Ki values were obtained from the IC50 and Kd values utilizing the Cheng-Prusoff equation:
[formula] • Literature: Cheng, Y.-C., and Prusoff, W. H. (1973) Biochem. Pharmacol 22, 3099-3108

Assay [2] deals with T2, hCB1R. The experiment in a line: In vitro functional assay with recombinant cells (FLIPR, intracellular Ca2+), CB1. The class given is cell-based. The arrangement: expressed in transfected cells; host or cells: HEK293. As for the experimental part: as §1, §2, §3

Bounds are passed on as bounds.

T2 sequence (P21554 whole entry): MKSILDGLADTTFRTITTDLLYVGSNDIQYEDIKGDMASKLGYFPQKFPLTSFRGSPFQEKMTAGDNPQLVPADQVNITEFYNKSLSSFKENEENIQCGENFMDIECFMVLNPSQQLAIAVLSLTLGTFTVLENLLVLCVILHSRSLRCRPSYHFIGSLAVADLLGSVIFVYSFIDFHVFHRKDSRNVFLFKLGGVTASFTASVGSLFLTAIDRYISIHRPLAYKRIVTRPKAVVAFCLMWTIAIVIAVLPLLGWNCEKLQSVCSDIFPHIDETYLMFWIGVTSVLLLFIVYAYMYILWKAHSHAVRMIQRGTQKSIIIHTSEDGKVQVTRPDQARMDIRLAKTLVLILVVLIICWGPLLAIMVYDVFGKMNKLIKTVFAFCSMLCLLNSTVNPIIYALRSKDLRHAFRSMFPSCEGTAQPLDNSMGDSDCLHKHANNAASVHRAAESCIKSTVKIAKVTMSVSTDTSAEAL
T1 sequence (P34972 whole entry): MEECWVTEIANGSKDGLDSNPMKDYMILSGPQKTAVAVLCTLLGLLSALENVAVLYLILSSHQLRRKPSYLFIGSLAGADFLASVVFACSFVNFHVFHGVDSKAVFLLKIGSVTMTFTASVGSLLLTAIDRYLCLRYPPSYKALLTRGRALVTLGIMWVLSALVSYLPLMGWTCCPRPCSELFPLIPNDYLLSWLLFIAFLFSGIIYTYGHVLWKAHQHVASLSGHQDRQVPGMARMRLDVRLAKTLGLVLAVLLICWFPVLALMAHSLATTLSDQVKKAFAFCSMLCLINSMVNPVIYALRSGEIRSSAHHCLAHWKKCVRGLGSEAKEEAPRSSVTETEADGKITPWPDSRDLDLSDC

Usually IC50 stands for the concentration at which inhibition is half-maximal. A word on the Ki: it is the equilibrium dissociation constant of an inhibitor or competing ligand from its target. A lower Ki goes with a stronger hold on the target. On to `N#Cc1ccc(N2C(=O)N(Cc3ccccc3Cc3ccccc3)C3(CCC3)C2=O)cc1C(F)(F)F` [Example 107, 4-[5-(2-Benzylbenzyl)-6,8-dioxo-5,7-diazaspiro[3.4]-oct-7-yl]-2-trifluoro-methylbenzonitrile], for which the IC50 was greater than 10000 nM on hCB2R and 43 nM at hCB1R [2]. This compound had a Ki on hCB1R [1] of 12 nM.

Values taken from patent US20110112097A1, “Substituted imidazoline-2,4-diones, process for preparation thereof, medicaments comprising these compounds and use thereof” (SANOFI-AVENTIS, priority 2008, published 2011).
